Results published in patent publication US20140163026A1, “8-ETHYL-6-(ARYL)PYRIDO[2,3-D]PYRIMIDIN-7(8H)-ONES FOR THE TREATMENT OF NERVOUS SYSTEM DISORDERS AND CANCER” (Afraxis Holdings, Inc., priority 2011, published 2014).

Experiments:
Type in all cases: biochemical
PAK3 = PAK3 (Homo sapiens, UniProt O75914); test: In vitro PAK inhibition assay (SelectScreen, Ser/Thr 20 peptide)
How it was run: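 Fluorescence-based development format: after a 60-min room-temperature kinase reaction and 60-min protease development, percent phosphorylation of Ser/Thr 20 peptide calculated via phosphopeptide controls. Buffer 50 mM HEPES pH 7.5, 10 mM MgCl2, 1 mM EGTA, 0.01% BRIJ-35; compounds at 1% DMSO, 10-point 3-fold dilution series.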

PAK1 = PAK1 (Homo sapiens, UniProt Q13153); test: In vitro PAK inhibition assay (SelectScreen, Ser/Thr 19 peptide)
How it was run: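 Ten-point, 3-fold compound series at 1% final DMSO were incubated with enzyme, Ser/Thr 19 peptide and ATP for 60 min at room temperature. Buffer was HEPES pH 7.5 (50 mM) with 10 mM MgCl2, 1 mM EGTA, 0.01% BRIJ-35. A 60 min development step preceded the fluorescence read converted to % phosphorylation.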

PAK4 = PAK4 (Homo sapiens, UniProt O96013); test: In vitro PAK inhibition assay (SelectScreen, Ser/Thr 20 peptide)
How it was run: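 Ten-point, 3-fold compound series (1% DMSO) incubated 1 h at room temperature with PAK4 (0.1-0.75 ng) and 2 μM Ser/Thr 20 peptide, HEPES pH 7.5 buffer with MgCl2, EGTA, BRIJ-35. Development reagent cleaves non-phosphorylated peptide; fluorescence emission ratio gives % phosphorylation, fitted sigmoidally for IC50.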

PAK2 (PAK65) = PAK2 (PAK65) (Homo sapiens, UniProt Q13177); test: as above
How it was run: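 Ten-point threefold compound dilutions (1% DMSO) were incubated with PAK2 (0.29-6 ng) and Ser/Thr 20 substrate (2 μM) for 60 min at room temperature in HEPES pH 7.5 buffer with MgCl2, EGTA and BRIJ-35.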

Sequence of PAK3 (O75914 whole entry): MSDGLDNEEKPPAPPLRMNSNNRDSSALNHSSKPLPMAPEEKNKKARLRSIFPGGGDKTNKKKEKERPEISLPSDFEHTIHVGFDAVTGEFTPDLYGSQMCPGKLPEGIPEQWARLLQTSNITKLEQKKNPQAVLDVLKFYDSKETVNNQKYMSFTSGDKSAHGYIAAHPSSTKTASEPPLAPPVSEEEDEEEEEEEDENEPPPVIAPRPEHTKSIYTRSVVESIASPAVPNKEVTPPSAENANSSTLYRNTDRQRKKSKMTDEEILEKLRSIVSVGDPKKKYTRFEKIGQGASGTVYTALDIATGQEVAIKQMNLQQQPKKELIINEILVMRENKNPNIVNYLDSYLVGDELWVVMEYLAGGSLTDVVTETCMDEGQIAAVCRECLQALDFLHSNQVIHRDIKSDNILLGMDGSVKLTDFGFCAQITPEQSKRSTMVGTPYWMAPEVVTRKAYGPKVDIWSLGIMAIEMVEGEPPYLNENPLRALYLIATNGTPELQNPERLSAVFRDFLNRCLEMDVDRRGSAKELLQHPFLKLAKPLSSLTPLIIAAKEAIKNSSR
Sequence of PAK2 (PAK65) (Q13177 whole entry): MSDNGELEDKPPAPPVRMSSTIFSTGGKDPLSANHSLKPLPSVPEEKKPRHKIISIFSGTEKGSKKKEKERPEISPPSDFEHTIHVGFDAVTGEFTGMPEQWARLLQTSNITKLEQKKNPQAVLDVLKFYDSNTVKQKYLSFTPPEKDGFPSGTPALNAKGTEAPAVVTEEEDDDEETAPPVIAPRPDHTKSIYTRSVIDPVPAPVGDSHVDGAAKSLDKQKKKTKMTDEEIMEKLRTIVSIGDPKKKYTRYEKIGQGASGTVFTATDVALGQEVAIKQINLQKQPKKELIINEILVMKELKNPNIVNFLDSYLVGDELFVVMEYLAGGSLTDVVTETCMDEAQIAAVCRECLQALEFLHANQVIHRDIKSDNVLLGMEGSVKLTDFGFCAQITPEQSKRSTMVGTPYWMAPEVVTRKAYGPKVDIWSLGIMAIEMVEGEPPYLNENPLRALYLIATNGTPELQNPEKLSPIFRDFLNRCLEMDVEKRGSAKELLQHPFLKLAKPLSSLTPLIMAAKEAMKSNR
Sequence of PAK1 (Q13153 whole entry): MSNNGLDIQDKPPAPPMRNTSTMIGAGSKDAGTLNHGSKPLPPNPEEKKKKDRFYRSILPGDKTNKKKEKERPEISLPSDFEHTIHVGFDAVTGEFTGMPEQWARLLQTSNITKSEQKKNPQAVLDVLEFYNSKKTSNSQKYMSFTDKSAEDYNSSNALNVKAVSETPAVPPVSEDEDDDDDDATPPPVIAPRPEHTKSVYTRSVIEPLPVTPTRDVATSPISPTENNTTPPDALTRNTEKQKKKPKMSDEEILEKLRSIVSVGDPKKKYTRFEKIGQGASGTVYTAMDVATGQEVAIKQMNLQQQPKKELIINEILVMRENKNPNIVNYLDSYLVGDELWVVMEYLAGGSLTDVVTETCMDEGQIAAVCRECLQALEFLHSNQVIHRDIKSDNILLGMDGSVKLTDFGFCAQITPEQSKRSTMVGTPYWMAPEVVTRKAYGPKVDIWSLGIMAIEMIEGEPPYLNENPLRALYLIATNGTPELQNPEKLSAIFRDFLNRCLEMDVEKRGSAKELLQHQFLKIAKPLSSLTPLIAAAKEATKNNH
Sequence of PAK4 (O96013 whole entry): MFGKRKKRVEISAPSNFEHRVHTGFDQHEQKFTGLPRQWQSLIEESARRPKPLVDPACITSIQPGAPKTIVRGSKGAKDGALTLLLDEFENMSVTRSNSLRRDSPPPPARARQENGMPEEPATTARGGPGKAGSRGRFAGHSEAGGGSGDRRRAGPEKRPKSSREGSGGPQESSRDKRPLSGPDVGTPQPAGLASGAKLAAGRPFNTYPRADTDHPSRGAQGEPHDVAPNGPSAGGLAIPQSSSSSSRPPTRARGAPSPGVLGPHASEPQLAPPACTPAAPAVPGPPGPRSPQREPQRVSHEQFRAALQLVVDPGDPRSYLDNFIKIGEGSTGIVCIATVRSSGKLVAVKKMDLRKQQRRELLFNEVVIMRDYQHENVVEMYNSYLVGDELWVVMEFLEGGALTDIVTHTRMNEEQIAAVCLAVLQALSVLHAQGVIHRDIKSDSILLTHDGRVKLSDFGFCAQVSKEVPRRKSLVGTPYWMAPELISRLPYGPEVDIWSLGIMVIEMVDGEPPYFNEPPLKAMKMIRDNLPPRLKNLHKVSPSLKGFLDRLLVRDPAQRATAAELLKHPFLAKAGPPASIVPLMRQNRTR

Row | Structure (SMILES) | IC50 (PAK3) [nM] | IC50 (PAK1) [nM] | IC50 (PAK4) [nM] | IC50 (PAK2 (PAK65)) [nM]
1 | CCn1c(=O)c(-c2ccc(-c3ccoc3)cc2Cl)cc2cnc(Nc3ccc(N4CCN(C)CC4)cc3)nc21 | < 50 | < 50 | ≥ 5000 | < 50
2 | CCn1c(=O)c(-c2ccc(-c3ccco3)cc2Cl)cc2cnc(Nc3ccc(N4CCN(C)CC4)cc3)nc21 | < 50 | < 50 | ≥ 5000 | < 50
3 | CCn1c(=O)c(-c2ccc(-c3ccsc3)cc2Cl)cc2cnc(Nc3ccc(N4CCN(C)CC4)cc3)nc21 | < 50 | < 50 | ≥ 5000 | < 50
4 | CCn1c(=O)c(-c2ccc(-c3ccc(C)s3)cc2Cl)cc2cnc(Nc3ccc(N4CCN(C)CC4)cc3)nc21 | 50 to 500 | < 50 | ≥ 5000 | < 50
5 | CCn1c(=O)c(-c2ccc(-c3cnn(C)c3)cc2Cl)cc2cnc(Nc3ccc(N4CCN(C)CC4)cc3)nc21 | 50 to 500 | < 50 | ≥ 5000 | < 50
6 | CCn1c(=O)c(-c2ccc(-c3cccnc3F)cc2Cl)cc2cnc(Nc3ccc(C4CCNCC4)c(F)c3)nc21 | < 50 | < 50 | 500 to 5000 | < 50
7 | CCn1c(=O)c(-c2ccc(-c3ccc(C)nc3F)cc2Cl)cc2cnc(Nc3ccc(C4CCN(C)CC4)cc3)nc21 | 50 to 500 | < 50 | 500 to 5000 | < 50
8 | CCn1c(=O)c(-c2ccc(-c3ccc(C)nc3)cc2Cl)cc2cnc(Nc3ccc(C4CCN(C)CC4)c(F)c3)nc21 | 50 to 500 | < 50 | ≥ 5000 | < 50
9 | CCn1c(=O)c(-c2ccc(-c3cccnc3F)cc2Cl)cc2cnc(Nc3ccc(C4CCN(C)CC4)c(F)c3)nc21 | < 50 | < 50 | 500 to 5000 | < 50
10 | CCn1c(=O)c(-c2ccc(-c3cccnc3C)cc2Cl)cc2cnc(Nc3ccc(C4CCN(C)CC4)c(F)c3)nc21 | 50 to 500 | < 50 | ≥ 5000 | 50 to 500
11 | CCN1CCC(c2ccc(Nc3ncc4cc(-c5ccc(-c6ccc(C)nc6)cc5Cl)c(=O)n(CC)c4n3)cc2F)CC1 | 50 to 500 | < 50 | 500 to 5000 | < 50
12 | CCN1CCC(c2ccc(Nc3ncc4cc(-c5ccc(-c6cccnc6C)cc5Cl)c(=O)n(CC)c4n3)cc2F)CC1 | 50 to 500 | < 50 | ≥ 5000 | 50 to 500
13 | CCn1c(=O)c(-c2ccc(-c3ccc(F)nc3C)cc2Cl)cc2cnc(Nc3ccc(C4CCN(C)CC4)cc3)nc21 | 50 to 500 | < 50 | ≥ 5000 | 50 to 500
14 | CCN1CCC(c2ccc(Nc3ncc4cc(-c5ccc(-c6cccnc6F)cc5Cl)c(=O)n(CC)c4n3)cc2F)CC1 | < 50 | < 50 | 500 to 5000 | < 50
15 | CCN1CCC(c2ccc(Nc3ncc4cc(-c5ccc(-c6noc(C)n6)cc5Cl)c(=O)n(CC)c4n3)cc2F)CC1 | < 50 | < 50 | ≥ 5000 | < 50
16 | CCN1CCC(c2ccc(Nc3ncc4cc(-c5ccc(-c6ccc(C)nc6F)cc5Cl)c(=O)n(CC)c4n3)cc2F)CC1 | 50 to 500 | 50 to 500 | ≥ 5000 | 50 to 500
17 | CCn1c(=O)c(-c2ccc(-c3noc(C)n3)cc2Cl)cc2cnc(Nc3ccc(C4CCN(C(C)C)CC4)cc3)nc21 | < 50 | < 50 | 500 to 5000 | < 50
18 | CCn1c(=O)c(-c2ccc(-c3ccnc(C)c3)cc2Cl)cc2cnc(Nc3ccc(C4CCN(C)CC4)c(F)c3)nc21 | 50 to 500 | < 50 | ≥ 5000 | < 50
19 | Cc1ncccc1-c1ccc(-c2cc3cnc(Nc4ccc(C5CCN(C)CC5)cc4)nc3n(C)c2=O)c(Cl)c1 | 50 to 500 | < 50 | ≥ 5000 | < 50
20 | CCN1CCC(c2ccc(Nc3ncc4cc(-c5ccc(-c6ccnc(C)c6)cc5Cl)c(=O)n(CC)c4n3)cc2F)CC1 | < 50 | < 50 | 500 to 5000 | < 50
21 | CCn1c(=O)c(-c2ccc(-c3noc(C)n3)cc2Cl)cc2cnc(Nc3ccc(C4CCN(C)CC4)c(F)c3)nc21 | < 50 | < 50 | 500 to 5000 | < 50
22 | CCn1c(=O)c(-c2ccc(-c3ccc(C)nc3F)cc2Cl)cc2cnc(Nc3ccc(C4CCN(C)CC4)c(F)c3)nc21 | 50 to 500 | 50 to 500 | 500 to 5000 | 50 to 500

Row | Structure (SMILES) | IC50 (PAK3) [nM] | IC50 (PAK1) [nM] | IC50 (PAK4) [nM] | IC50 (PAK2 (PAK65)) [nM]
23 | CCn1c(=O)c(-c2ccc(-c3ccc(F)nc3C)cc2Cl)cc2cnc(Nc3ccc(C4CCN(C)CC4)c(F)c3)nc21 | 50 to 500 | 50 to 500 | ≥ 5000 | 50 to 500
24 | CCn1c(=O)c(-c2ccc(-c3ccnc(C(=O)NC)c3)cc2Cl)cc2cnc(Nc3ccc(C4CCN5CCCC5C4)cc3)nc21 (centres unmarked) | 50 to 500 | 50 to 500 | ≥ 5000 | 50 to 500
25 | CCn1c(=O)c(-c2ccc(-c3cnc(C)s3)cc2Cl)cc2cnc(Nc3ccc(CCN(C)C)cc3)nc21 | < 50 | < 50 | 500 to 5000 | < 50
26 | Cc1ncccc1-c1ccc(-c2cc3cnc(Nc4ccc(CCN(C)C)cc4)nc3n(C)c2=O)c(Cl)c1 | 50 to 500 | < 50 | ≥ 5000 | 50 to 500
27 | CCN1CCC(c2ccc(Nc3ncc4cc(-c5ccc(-c6noc(C)n6)cc5Cl)c(=O)n(C)c4n3)cc2)CC1 | < 50 | < 50 | ≥ 5000 | < 50
28 | Cc1nc(-c2ccc(-c3cc4cnc(Nc5ccc(CCN(C)C)cc5)nc4n(C)c3=O)c(Cl)c2)no1 | < 50 | < 50 | ≥ 5000 | < 50
29 | Cc1ncc(-c2ccc(-c3cc4cnc(Nc5ccc(C6CCN(C)CC6)cc5)nc4n(C)c3=O)c(Cl)c2)s1 | 50 to 500 | < 50 | ≥ 5000 | < 50
30 | Cc1ncc(-c2ccc(-c3cc4cnc(Nc5ccc(CCN(C)C)cc5)nc4n(C)c3=O)c(Cl)c2)s1 | < 50 | < 50 | ≥ 5000 | < 50
31 | CCn1c(=O)c(-c2ccc(-c3ccc(C)nc3)cc2Cl)cc2cnc(Nc3ccc(C4CCN5CCCC5C4)cc3)nc21 (centres unmarked) | 50 to 500 | < 50 | 500 to 5000 | < 50
32 | CCn1c(=O)c(-c2ccc(-c3ccnc(C)c3)cc2Cl)cc2cnc(Nc3ccc(C4CCN5CCCC5C4)cc3)nc21 (centres unmarked) | 50 to 500 | < 50 | ≥ 5000 | 50 to 500
33 | CCn1c(=O)c(-c2ccc(-c3cnc(C)s3)cc2Cl)cc2cnc(Nc3ccc(C4CCN5CCCC5C4)cc3)nc21 (centres unmarked) | < 50 | < 50 | 500 to 5000 | < 50
34 | CCN1CCC(c2ccc(Nc3ncc4cc(-c5ccc(-c6cccnc6C)cc5Cl)c(=O)n(C)c4n3)cc2)CC1 | 50 to 500 | < 50 | ≥ 5000 | 50 to 500
35 | CNC(=O)c1cc(-c2ccc(-c3cc4cnc(Nc5ccc(C6CCN(C)CC6)cc5)nc4n(C)c3=O)c(Cl)c2)ccn1 | 500 to 5000 | 50 to 500 | ≥ 5000 | 50 to 500
36 | CNC(=O)c1cc(-c2ccc(-c3cc4cnc(Nc5ccc(CCN(C)C)cc5)nc4n(C)c3=O)c(Cl)c2)ccn1 | 500 to 5000 | 50 to 500 | ≥ 5000 | 50 to 500
37 | CNC(=O)c1cc(-c2ccc(-c3cc4cnc(Nc5ccc(C6CCNCC6)cc5)nc4n(C)c3=O)c(Cl)c2)ccn1 | 50 to 500 | 50 to 500 | 500 to 5000 | 50 to 500
38 | CN1CCC(c2ccc(Nc3ncc4cc(-c5ccc(-c6cccnc6F)cc5Cl)c(=O)n(C)c4n3)cc2)CC1 | < 50 | < 50 | ≥ 5000 | < 50
39 | CN(C)CCc1ccc(Nc2ncc3cc(-c4ccc(-c5cccnc5F)cc4Cl)c(=O)n(C)c3n2)cc1 | < 50 | < 50 | 500 to 5000 | < 50
40 | CCn1c(=O)c(-c2ccc(-c3ccc(F)nc3C)cc2Cl)cc2cnc(Nc3ccc(C4CCNCC4)c(F)c3)nc21 | 50 to 500 | 50 to 500 | ≥ 5000 | 50 to 500
41 | CCn1c(=O)c(-c2ccc(-c3noc(C)n3)cc2Cl)cc2cnc(Nc3ccc(CCN4CCCC4)cc3)nc21 | < 50 | < 50 | 500 to 5000 | < 50
42 | CCn1c(=O)c(-c2ccc(-c3cccnc3C)cc2Cl)cc2cnc(Nc3ccc(CCN4CCCC4)cc3)nc21 | 50 to 500 | < 50 | ≥ 5000 | < 50
43 | CCn1c(=O)c(-c2ccc(-c3cccnc3F)cc2Cl)cc2cnc(Nc3ccc(CCN4CCOCC4)cc3)nc21 | 50 to 500 | 50 to 500 | ≥ 5000 | 50 to 500
44 | CCn1c(=O)c(-c2ccc(-c3noc(C)n3)cc2)cc2cnc(Nc3ccc(C4CCN(C)CC4)cc3)nc21 | 50 to 500 | 50 to 500 | ≥ 5000 | 50 to 500
